For orientation: pIC50 means −log10 of the IC50, conventionally taken in molar units.

Structures are written as SMILES. pIC50: −log10 of the molar value.

From patent publication US7951802B2, “Use of 7-azaindoles in the inhibition of c-Jun N-terminal kinase” (Eisai R&D Management Co., Ltd., priority 2007, dated 2011) come the findings set out here.

In this assay the target is JNK3 (Homo sapiens, UniProt P53779). As to the kind of experiment: JNK3 SPA assay (phosphorylation of GST-c-Jun). It is filed as biochemical. Particulars: 3.33 μM ATP, GST-c-Jun substrate, read-out: IC50 against JNK3. The protocol:
JNK1, JNK2, JNK3—SPA Assay
JNK1, JNK2, JNK3—SPA Assay • 1. Compound is dissolved in DMSO to a convenient concentration and this is diluted in 10% DMSO to a five times concentrate of the desired starting concentration (frequently 1:100). • 2. 10 μl of 500 mM EDTA is added to alternative wells of the Opti-plate row, which will receive kinase reaction plus DMSO. This creates the negative control. • 3. For the JNK2 and JNK3 assay, compounds are prepared in six 2-fold dilutions with water and each concentration is tested in duplicate. For the JNK1 assay compounds are prepared in four 5-fold dilutions with water which are tested in triplicate. Controls are treated identically. • 4. 20 μl per well of each compound concentration is transferred to an Opti-plate, in duplicate. • 5. 30 μl (JNK2/3 SPA) or 50 μl (JNK1 SPA) of substrate solution (25 mM HEPES pH 7.5, 10 mM magnesium acetate with 3.33 μM ATP (JNK2/3) or 2 μM ATP (JNK1), approximately 7.5 kBq [γ-^33P] ATP, GST-c-Jun, in water) is added to each well. • 6. 50 μl (JNK2/3 SPA) or 30 μl (JNK1 SPA) of kinase solution (JNK in 25 mM HEPES pH 7.5, 10 mM Mg Acetate) is added to each well.
• 7. The plate is incubated for 30 minutes at room temperature. • 8. 100 μl of bead/stop solution is added to each well (5 mg/ml glutathione-PVT-SPA beads, 40 mM ATP in PBS). • 9. Plates are sealed and incubated for 30 minutes at room temperature, centrifuged for 10 minutes at 2500 g and counted. • 10. The IC50 values are calculated as the concentration of the compound being tested at which the phosphorylation of c-Jun is decreased to 50% of the control value.

Sequence of JNK3 (P53779 whole entry, species assumed): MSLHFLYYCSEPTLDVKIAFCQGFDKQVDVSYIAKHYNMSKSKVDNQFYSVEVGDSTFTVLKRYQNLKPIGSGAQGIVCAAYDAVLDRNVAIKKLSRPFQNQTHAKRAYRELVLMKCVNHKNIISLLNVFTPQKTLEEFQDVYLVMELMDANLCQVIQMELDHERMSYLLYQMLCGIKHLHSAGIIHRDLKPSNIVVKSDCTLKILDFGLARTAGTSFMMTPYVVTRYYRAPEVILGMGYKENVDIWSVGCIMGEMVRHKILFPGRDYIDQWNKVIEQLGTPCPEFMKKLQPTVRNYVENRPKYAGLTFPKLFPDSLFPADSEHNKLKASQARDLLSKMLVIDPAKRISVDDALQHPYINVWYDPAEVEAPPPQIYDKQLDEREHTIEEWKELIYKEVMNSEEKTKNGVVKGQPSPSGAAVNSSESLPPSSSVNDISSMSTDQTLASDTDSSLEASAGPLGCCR

`Cc1nc(-c2c[nH]c3ncc([C@H]4CC[C@@H](N5CCOCC5)CC4)cc23)cs1` [Compound I-56, 4-((1s,4s)-4-(3-(2-methylthiazol-4-yl)-1H-pyrrolo[2,3-b]pyridin-5-yl)cyclohexyl)morpholine]: the pIC50 was less than 5.70.

Take `Cc1nc(-c2c[nH]c3ncc(C4CCCCC4)cc23)cs1` [Compound I-58, 4-(5-cyclohexyl-1H-pyrrolo[2,3-b]pyridin-3-yl)-2-methylthiazole]: the pIC50 is less than 5.70.

With `c1nc(-c2c[nH]c3ncc([C@H]4CC[C@H](N5CCOCC5)CC4)cc23)cs1` [Compound I-59, 4-((1r,4r)-4-(3-(thiazol-4-yl)-1H-pyrrolo[2,3-b]pyridin-5-yl)cyclohexyl)morpholine], the negative logarithm of the IC50 (pIC50) was 6.09.

Regarding `c1ncc(-c2c[nH]c3ncc([C@H]4CC[C@H](N5CCOCC5)CC4)cc23)s1` [Compound I-60, 4-((1r,4r)-4-(3-(thiazol-5-yl)-1H-pyrrolo[2,3-b]pyridin-5-yl)cyclohexyl)morpholine], the negative-log IC50 (pIC50) was 6.96. The same measure for `Cc1csc(-c2c[nH]c3ncc([C@H]4CC[C@H](N5CCOCC5)CC4)cc23)n1` [Compound I-61, 4-((1r,4r)-4-(3-(4-methylthiazol-2-yl)-1H-pyrrolo[2,3-b]pyridin-5-yl)cyclohexyl)morpholine]: 6.24; for `Cc1cnc(-c2c[nH]c3ncc([C@H]4CC[C@H](N5CCOCC5)CC4)cc23)s1` [Compound I-62, 4-((1r,4r)-4-(3-(5-methylthiazol-2-yl)-1H-pyrrolo[2,3-b]pyridin-5-yl)cyclohexyl)morpholine]: 6.06; for `CCOc1nc(-c2c[nH]c3ncc([C@H]4CC[C@H](N5CCOCC5)CC4)cc23)cs1` [Compound I-63, 4-((1r,4r)-4-(3-(2-ethoxythiazol-4-yl)-1H-pyrrolo[2,3-b]pyridin-5-yl)cyclohexyl)morpholine]: 6.52. The same measure for `FC(F)(F)c1csc(-c2c[nH]c3ncc([C@H]4CC[C@H](N5CCOCC5)CC4)cc23)n1` [Compound I-69, 4-((1r,4r)-4-(3-(4-(trifluoromethyl)thiazol-2-yl)-1H-pyrrolo[2,3-b]pyridin-5-yl)cyclohexyl)morpholine]: 6.35; for `FC(F)(F)c1csc(-c2c[nH]c3ncc([C@H]4CC[C@@H](N5CCOCC5)CC4)cc23)n1` [Compound I-70, 4-((1s,4s)-4-(3-(4-(trifluoromethyl)thiazol-2-yl)-1H-pyrrolo[2,3-b]pyridin-5-yl)cyclohexyl)morpholine]: 5.96; for `Cc1nc(-c2c[nH]c3ncc([C@H]4CC[C@H](N5CCCC5)CC4)cc23)cs1` [Compound I-74, 2-methyl-4-(5-((1r,4r)-4-(pyrrolidin-1-yl)cyclohexyl)-1H-pyrrolo[2,3-b]pyridin-3-yl)thiazole]: 5.48.

Turning to `Cc1nc(-c2c[nH]c3ncc([C@H]4CC[C@H](N5CCCOCC5)CC4)cc23)cs1` [Compound I-75, 4-((1r,4r)-4-(3-(2-methylthiazol-4-yl)-1H-pyrrolo[2,3-b]pyridin-5-yl)cyclohexyl)-1,4-oxazepane], the pIC50 was less than 6.00.

As for `Cc1nc(-c2c[nH]c3ncc([C@H]4CC[C@@H](N5CCCOCC5)CC4)cc23)cs1` [Compound I-76, 4-((1s,4s)-4-(3-(2-methylthiazol-4-yl)-1H-pyrrolo[2,3-b]pyridin-5-yl)cyclohexyl)-1,4-oxazepane], the pIC50 was less than 6.00. The result for `CN1CCC(c2csc(-c3c[nH]c4ncc([C@H]5CC[C@H](N6CCOCC6)CC5)cc34)n2)CC1` [Compound I-78, 4-((1r,4r)-4-(3-(4-(1-methylpiperidin-4-yl)thiazol-2-yl)-1H-pyrrolo[2,3-b]pyridin-5-yl)cyclohexyl)morpholine] reads 6.53. The same measure for `CN1CCC(c2csc(-c3c[nH]c4ncc([C@H]5CC[C@@H](N6CCOCC6)CC5)cc34)n2)CC1` [Compound I-79, 4-((1s,4s)-4-(3-(4-(1-methylpiperidin-4-yl)thiazol-2-yl)-1H-pyrrolo[2,3-b]pyridin-5-yl)cyclohexyl)morpholine]: 6.51; for `FC(F)(F)c1csc(-c2c[nH]c3ncc([C@H]4CC[C@H](N5CCCOCC5)CC4)cc23)n1` [Compound I-80, 4-((1r,4r)-4-(3-(4-(trifluoromethyl)thiazol-2-yl)-1H-pyrrolo[2,3-b]pyridin-5-yl)cyclohexyl)-1,4-oxazepane]: 6.29. The result for `CN1CCN([C@H]2CC[C@H](c3cnc4[nH]cc(-c5nc(C(F)(F)F)cs5)c4c3)CC2)CC1` [Compound I-82, 2-(5-((1r,4r)-4-(4-methylpiperazin-1-yl)cyclohexyl)-1H-pyrrolo[2,3-b]pyridin-3-yl)-4-(trifluoromethyl)thiazole] reads 6.57.

In the case of `CN1CCN([C@H]2CC[C@@H](c3cnc4[nH]cc(-c5nc(C(F)(F)F)cs5)c4c3)CC2)CC1` [Compound I-83, 2-(5-((1s,4s)-4-(4-methylpiperazin-1-yl)cyclohexyl)-1H-pyrrolo[2,3-b]pyridin-3-yl)-4-(trifluoromethyl)thiazole], the negative logarithm of the IC50 (pIC50) was 6.22.

Turning to `FC(F)(F)c1csc(-c2c[nH]c3ncc([C@H]4CC[C@H](N5CCCC5)CC4)cc23)n1` [Compound I-84, 2-(5-((1r,4r)-4-(pyrrolidin-1-yl)cyclohexyl)-1H-pyrrolo[2,3-b]pyridin-3-yl)-4-(trifluoromethyl)thiazole], the pIC50 is 6.16. The same measure for `FC(F)(F)c1csc(-c2c[nH]c3ncc([C@H]4CC[C@@H](N5CCCC5)CC4)cc23)n1` [Compound I-85, 2-(5-((1s,4s)-4-(pyrrolidin-1-yl)cyclohexyl)-1H-pyrrolo[2,3-b]pyridin-3-yl)-4-(trifluoromethyl)thiazole]: 5.74; for `c1csc(-c2c[nH]c3ncc([C@H]4CC[C@H](N5CCOCC5)CC4)cc23)n1` [Compound I-89, 4-((1r,4r)-4-(3-(thiazol-2-yl)-1H-pyrrolo[2,3-b]pyridin-5-yl)cyclohexyl)morpholine]: 6.24. The same measure for `c1csc(-c2c[nH]c3ncc([C@H]4CC[C@@H](N5CCOCC5)CC4)cc23)n1` [Compound I-90, 4-((1s,4s)-4-(3-(thiazol-2-yl)-1H-pyrrolo[2,3-b]pyridin-5-yl)cyclohexyl)morpholine]: 5.88. Consider `Cc1nc(-c2c[nH]c3ncc([C@H]4CC[C@@H](N5CCN(C)CC5)CC4)cc23)cs1` [Compound I-92, 2-methyl-4-(5-((1s,4s)-4-(4-methylpiperazin-1-yl)cyclohexyl)-1H-pyrrolo[2,3-b]pyridin-3-yl)thiazole], for which the pIC50 was less than 6.00. The result for `CN1CCC(c2nc(-c3c[nH]c4ncc([C@H]5CC[C@H](N6CCOCC6)CC5)cc34)cs2)CC1` [Compound I-94, 4-((1r,4r)-4-(3-(2-(1-methylpiperidin-4-yl)thiazol-4-yl)-1H-pyrrolo[2,3-b]pyridin-5-yl)cyclohexyl)morpholine] reads 6.16; that for `CN1CCC(c2nc(-c3c[nH]c4ncc([C@H]5CC[C@H](N6CCN(C)CC6)CC5)cc34)cs2)CC1` [Compound I-96, 4-(5-((1r,4r)-4-(4-methylpiperazin-1-yl)cyclohexyl)-1H-pyrrolo[2,3-b]pyridin-3-yl)-2-(1-methylpiperidin-4-yl)thiazole], 6.64; that for `CN1CCC(c2nc(-c3c[nH]c4ncc([C@H]5CC[C@H](N6CCCC6)CC5)cc34)cs2)CC1` [Compound I-98, 2-(1-methylpiperidin-4-yl)-4-(5-((1r,4r)-4-(pyrrolidin-1-yl)cyclohexyl)-1H-pyrrolo[2,3-b]pyridin-3-yl)thiazole], 6.10. For `CN1CCC(c2nc(-c3c[nH]c4ncc(C5=CCC(N6CCOCC6)CC5)cc34)cs2)CC1` (centres unmarked) [Compound I-100, 4-(4-(3-(2-(1-methylpiperidin-4-yl)thiazol-4-yl)-1H-pyrrolo[2,3-b]pyridin-5-yl)cyclohex-3-enyl)morpholine], the pIC50 was 6.35. With `CN1CCC(c2nc(-c3c[nH]c4ncc(C5=CCC(N6CCCOCC6)CC5)cc34)cs2)CC1` (centres unmarked) [Compound I-101, 4-(4-(3-(2-(1-methylpiperidin-4-yl)thiazol-4-yl)-1H-pyrrolo[2,3-b]pyridin-5-yl)cyclohex-3-enyl)-1,4-oxazepane], the pIC50 is 6.44.

For `CN1CCC(c2nc(-c3c[nH]c4ncc([C@H]5CC[C@H](N6CCCOCC6)CC5)cc34)cs2)CC1` [Compound I-102, 4-((1r,4r)-4-(3-(2-(1-methylpiperidin-4-yl)thiazol-4-yl)-1H-pyrrolo[2,3-b]pyridin-5-yl)cyclohexyl)-1,4-oxazepane], the pIC50 was 6.26. The result for `CN1CCCC1c1nc(-c2c[nH]c3ncc([C@H]4CC[C@H](N5CCOCC5)CC4)cc23)cs1` (some centres unmarked) [Compound I-107, 4-((1r,4r)-4-(3-(2-(1-methylpyrrolidin-2-yl)thiazol-4-yl)-1H-pyrrolo[2,3-b]pyridin-5-yl)cyclohexyl)morpholine] reads 5.90.
